Assay results from patent EP0525360B1, “Novel phenylacetamide derivatives and processes for the preparation thereof” (KOREA RESEARCH INSTITUTE OF CHEMICAL TECHNOLOGY, priority 1991, dated 1993).
Where two headings read alike, the source gives them in different places.

What was measured:
[1] = acute toxicity test; conditions: mouse, in vivo, po, per os, 5 weeks old, observed for 14 days
[2] = system: Salmonella typhimurium TA 100; assay: mutagenicity test (Maron and Ames); format: cell-based; conditions: 3.2, 16, 80 and 400µg/plate
Description: (§1) The numbers of mutated colonies were not increased at concentrations of 3.2, 16, 80 and 400µg/plate for the test compound.

[3] = system: Salmonella typhimurium TA98; assay: mutagenicity test (Maron and Ames); format: cell-based; conditions: 3.2, 16, 80 and 400µg/plate
Description: as §1

[4] = system: mice; assay: Tail-flick test (radiant heat); format: in vivo
Description: Radiant heat was applied using a beam of high-intensity light focused on a tail spot. The response time, defined as the interval between the onset of the stimulus and the tail flick, was measured electronically(to the nearest 0.1 second). The beam intensity was set at a level giving a mean control reaction time of 3.8±0.4 seconds. […] The percentage of inhibition was determined by the following equation: Inhibition(%) =(Reaction time of the treated group - Reaction time of the control group)/(Reaction time of the control group)x 100 [formula]

[5] = system: mice; assay: Hot-plate test; format: in vivo; conditions: p. o.
Description: Mice were placed on an aluminum plate maintained at 55± 0.5°C by a thermo-regulator(Harvard). A glass cylinder, 15cm in height and 15cm in diameter, served to confine the mice to the heated plate. Blowing of the fore paws was used as the end-point for determination of response latency(measured to the neatest 0.1 second).

[6] = Use Examples: administration of compositions to human subjects; format: in vivo; conditions: 0.4mℓ on 80cm^2 of the forearm, 60kg male adult
Description: One tablet was administered orally to a patient(weight: 67kg) in need of analgesia two times daily to successfully provide the effect of general analgesia.
The compound of Example 5 was dissolved in sesame oil with the aid of sonication and was packaged in soft gelatin capsules using the common methods known in the art.
The above ingredients were mixed to produce a syrup which was packaged under a sterile condition in 6 oz. bottles. One teaspoon of this formulation was administrated to a 70kg adult, reducing inflammation and producing analgesia.
The compound of Example 1 was dissolved in a solution containing the other ingredients.

[7] = system: Rats(Sprague-Dawley, female); assay: Local anti-inflammatory test (transdermal, carrageenin paw edema); format: in vivo; conditions: for Double Dose(24 hr), percentage of inhibition: transdermal double dose (second application 7 hours later), edema measured 24 hours later; for Single Dose(1 hr), percentage of inhibition: transdermal single dose, edema measured 1 hour later
Description: Rats(Sprague-Dawley, female) weighing 100 to 120g were used. 20 minutes after the test drug was administered transdermally (another application 7 hours later for double dose experiment), carrageenin was injected(0.1ml of 1% solution, s. c.) into the plantar surface of the right hind paw. The volume of the edema was measured with a volumeter either 1 hour later for […] dose experiment or 24 hours later for double dose experiment; and the percentage of inhibition was measured by the same equation as used in Anti-inflammatory Test.

[8] = system: Rats(Sprague-Dawley, female); assay: Anti-inflammatory test (carrageenin paw edema); format: in vivo; conditions: Rattus norvegicus, sc; s. c., twenty minutes before carrageenin; edema volume 3 hours later; read-out: ED50
Description: Rats(Sprague-Dawley, female) weighing 100 to 120g were used. Twenty minutes after the test drug was administered(s. c.), carrageenin was injected(0.1mℓ of 1% solution, s. c.) in the plantar surface of the right hind paw.
The percentage of inhibition was determined by the following equation: Inhibition(%) =(Volume of the carrageenin treated foot - Volume of the control foot)/(Volume of the contol foot)x 100 [formula]

[9] = system: Male albino rats(120-170g) of the Charles River Sprague-Dawley strain; assay: Randall-Selitto test (yeast induced hyperalgesia); format: in vivo; conditions: dose 5 mg/Kg p. o.; 5 rats
Description: Randall-Selitto Test was carried out by following the method described in Arch. Int. Pharmacodyn.
Male albino rats(120-170g) of the Charles River Sprague-Dawley strain were used. Inflammation was produced by the injection of 0.1mℓ of a 20% suspension of Brewer's yeast into the plantar surface of the rat's hind foot.
The pain threshold was measured as the pressure in mmHg required to induce the desired response(a sharp audible squeak and/or struggle) when the pressure was applied to the foot. Air pressure from an air line was admitted through a needle valve to a 20mℓ glass syringe and to a pressure gauge which was connected by a T-tube. The syringe was mounted with the plunger downward to which was connected a short bullet-shaped Teflon peg. The pressure was applied to the foot of the rat at the rate of 10 mmHg per second. Drug was given 2 hours after the yeast injection. Two hours after the drug administration, threshold response was determined.
The analgesic activity was determined in terms of the percentage of inhibition of response: Inhibition(%) =(Threshold of the treated group - Threshold of the control group)/(Threshold of the control group)x 100 [formula]

[10] = system: Rats(Sprague-Dawley); assay: Tail-pinch test in rats with hyperalgesia induced by Freund's adjuvant; format: in vivo
Description: Rats(Sprague-Dawley) weighing 120g to 170g were used. Desiccated Mycobacterium butyricum(Difco Laboratories, Detroit, MI) was ground in a mortar, suspended in liquid paraffin, sterilized in an autoclave, and injected(0.5mg in 0.1mℓ, s.c.) in the distal region of the tail through a 1-inch 21-gauge needle. […] The hypersensitivity of the tail was examined as follows: the animal was held comfortably in one hand and gentle pressure was applied with the fingers of the opposite hand to the injected area. This gentle squeeze or "tail pinch" elicited a "squeak" from the animal. Five such stimuli were given at 4-second intervals. If the animal emitted no more than one squeak in five trials, it was recorded as having analgesia and given a rating of 1. […] The analgesic activity was determined by the following equation: Analgesic activity =(Total rating)/(Tested aminal number)x 100 [formula] The compound of Example 1, administered two hours before tail-pinch testing perorally, caused a dose related inhibition of adjuvant induced hyperalgesia, as shown in Table 6.

[11] = system: KTC-ICR mice; assay: acetic acid induced writhing test; format: in vivo; conditions: Mus musculus; oral; 0.9% acetic acid i.p. 60 minutes later; writhings during 10 minutes; mice 20 to 25g; Examples 1 to 32
Description: The KTC-ICR mice derived from Charles River Breeding Laboratory in the United States and provided by Experimental Animal Laboratory of Korea Research Institute of Chemical Technology were used as test animals. […] They were tested after having been adjusted to the testing environment for a week. Food and water were given freely; and illumination was maintained on a 12-hour cycle.
Experiments were performed in two ways: that is, the acetic acid induced writhing test and the phenyl-1,4-benzoquinone(PBQ) induced writhing test.
Solutions for the acetic acid induced writhing test were prepared by dissolving one of the end products prepared in Examples […] in a saline solution containing 1% by weight of Tween 80 to have a concentration of 5mg/mℓ and diluting it serially with the saline solution. The test solutions were administered orally in a dose of 0.3mℓ per 30g of body weight, using the 5 ICR mice for each test. 60 minutes later, 0.9% acetic acid solution was administered intraperitoneally in a dose of 0.1mℓ per 30g of body weight. 3 minutes thereafter, the number of writhings generated during a period of 10 minutes due to the administration of acetic acid was measured. For comparison purpose, initially, saline solution alone was administered orally to the control group. 60 minutes thereafter, 0.9% acetic acid solution was administered intraperitoneally to the control group.
The number of writhings suffered by the test group was compared with that of the control group; and the analgesic effect was measured in terms of the percentage of inhibition of writhing(I. W.). I. W. (%) =(A - B)/(A)x 100 [formula] A : the number of writhings suffered by the control group, B : the number of writhings suffered by the test group.
These ED50 values for the test compounds are shown in the last column of Table 1.

[12] = dose 5 mg/Kg, 7 rats, Example 1 perorally two hours before testing

COc1cc(CC(=O)NCCCc2ccc(C)c(C)c2)ccc1OCCN [Example 1, N-{3-(3,4-dimethylphenyl)propyl}-4-(2-aminoethoxy)-3-methoxyphenylacetamide]
LD50 at 336 h ([1]; 5 ICR female mice, read-out: LD50(female)): 364 mg/kg
LD50 at 336 h ([1]; 5 ICR male mice, read-out: LD50(male)): 224 mg/kg
numbers of mutated colonies [2]: not increased
numbers of mutated colonies [3]: not increased
Inhibition(%) ([4]; p. o., dose 1.25 mg/Kg): 10%
Inhibition(%) ([4]; p. o., dose 2.5 mg/Kg): 60%
Inhibition(%) ([4]; p. o., dose 5.0 mg/Kg): 80%
Inhibition(%) ([4]; p. o., dose 7.5 mg/Kg): 90%
Inhibition(%) ([4]; s. c., dose 0.5 mg/Kg): 50%
Inhibition(%) ([4]; s. c., dose 1.0 mg/Kg): 70%
Inhibition(%) ([5]; dose 2.5 mg/Kg): 28.6%
Inhibition(%) ([5]; dose 5.0 mg/Kg): 48.9%
Inhibition(%) ([5]; dose 10.0 mg/Kg): 97.0%
local analgesia after topical application ([6]; Use Example 5 liquid (4g in glycerol/water)): local analgesia which lasted for two days
skin irritation after topical application ([6]; Use Example 5 liquid): Little or no skin irritation was observed
Double Dose(24 hr), percentage of inhibition [7]: 32%
Single Dose(1 hr), percentage of inhibition [7]: 66%
ED50 [8]: 4 mg/kg
Inhibition(%) [9]: 247.4%
Analgesic activity(%) [10, 12]: 45.9%
Analgesic activity(%) ([10]; dose 10 mg/Kg, 6 rats, perorally two hours before testing): 66.7%
ED50 [11]: 0.08 mg/kg

COc1ccc2cc([C@H](C)C(=O)O)ccc2c1 [Naproxen, reference compound]
Double Dose(24 hr), percentage of inhibition [7]: 25%
Single Dose(1 hr), percentage of inhibition [7]: 54%
ED50 [8]: 43 mg/kg
Analgesic activity(%) [10, 12]: 28.6%
